In brackets after ≈: the same amount, converted by molar mass.
Assays:
Assay in all cases: MIC, in vitro antibacterial activity (standard strains)
Type in all cases: cell-based
[1] = system: Bacillus subtilis PCI 219; settings: PCI219; Bacillus subtilis PCI 219, 10^6 cells/ml, Gram +
[2] = system: Staphylococcus aureus 209 P; settings: 10^6 cells/ml, Gram +
[3] = system: S. aureus IID 670 (Terajima); settings: Staphylococcus aureus, IID670, 10^6 cells/ml, Gram +
S. epidermidis IID 866 = settings: Staphylococcus epidermidis, IID866; S. epidermidis IID 866, 10^6 cells/ml, Gram +
[4] = system: Streptococcus pyogenes (S-8); settings: Streptococcus pyogenes (S-8), 10^6 cells/ml, Gram +; read-out: MIC
S. pyogenes IID 692 = settings: Streptococcus pyogenes, IID692; S. pyogenes IID 692, 10^6 cells/ml, Gram +
S. pneumoniae IID 552 = settings: Streptococcus pneumoniae, IID552; S. pneumoniae IID 552, 10^6 cells/ml, Gram +; read-out: MIC
E. faecalis IID 682 = settings: Enterococcus faecalis, IID682; E. faecalis IID 682, 10^6 cells/ml, Gram +
[5] = system: Escherichia coli NIHJ JC-2; settings: NIHJJC2; Escherichia coli NIHJ JC-2, 10^6 cells/ml, Gram -; read-out: MIC
E. coli ATCC 10536 = settings: Escherichia coli, ATCC10536; E. coli ATCC 10536, 10^6 cells/ml, Gram -; read-out: MIC
[6] = system: Proteus vulgaris IFO 3167; settings: IFO3167; Proteus vulgaris IFO 3167, 10^6 cells/ml, Gram -; read-out: MIC
P. mirabilis IID 994 = settings: Proteus mirabilis, IID994; P. mirabilis IID 994, 10^6 cells/ml, Gram -; read-out: MIC
P. morganii IID 602 = settings: Morganella morganii, IID602; P. morganii IID 602, 10^6 cells/ml, Gram -
[7] = system: Klebsiella pneumoniae KY(GN)6445; settings: Klebsiella pneumoniae KY(GN)6445, 10^6 cells/ml, Gram -; read-out: MIC
K. pneumoniae 1-220S = settings: Klebsiella pneumoniae, 1220S; K. pneumoniae 1-220S, 10^6 cells/ml, Gram -; read-out: MIC
[8] = system: Enterobacter cloacae IID 977; settings: IID977; Enterobacter cloacae IID 977, 10^6 cells/ml, Gram -
[9] = system: Citrobacter freundii IID 976; settings: IID976; Citrobacter freundii IID 976, 10^6 cells/ml, Gram -; read-out: MIC
[10] = system: Serratia marcescens IID 618; settings: IID618; Serratia marcescens IID 618, 10^6 cells/ml, Gram -
Shigella sonnei IID 969 = settings: IID969; Shigella sonnei IID 969, 10^6 cells/ml, Gram -
Method: Minimal inhibitory concentrations (MICs) were determined in accordance with the method recommended by Japan Society of Chemotherapy.

[11] = system: Salmonella enteritidis IID 604; settings: Salmonella enterica; Salmonella enteritidis IID 604, 10^6 cells/ml, Gram -; read-out: MIC
P. aeruginosa IFO 12689 = settings: Pseudomonas aeruginosa, IFO12689; P. aeruginosa IFO 12689, 10^6 cells/ml, Gram -
[12] = system: Yersinia enterocolitica IID 981; settings: IID981; Yersinia enterocolitica IID 981, 10^6 cells/ml, Gram -
[13] = system: Acinetobacter anitratus IID 876; settings: Acinetobacter calcoaceticus, IID876; Acinetobacter anitratus IID 876, 10^6 cells/ml, Gram -
[14] = system: Alcaligenes faecalis 0104002; settings: Alcaligenes faecalis 0104002, 10^6 cells/ml, Gram -; read-out: MIC
[15] = system: Bacteroides fragilis GM 7000; settings: GM7000; Bacteroides fragilis GM 7000, 10^6 cells/ml, Gram -
B. fragilis 0558 = settings: Bacteroides fragilis; B. fragilis 0558, 10^6 cells/ml, Gram -
B. fragilis 25285 = settings: Bacteroides fragilis; B. fragilis 25285, 10^6 cells/ml, Gram -
B. fragilis 8503 = settings: Bacteroides fragilis; B. fragilis 8503, 10^6 cells/ml, Gram -
[16] = system: B. thetaiotaomicron (0661); settings: Bacteroides thetaiotaomicron; B. thetaiotaomicron (0661), 10^6 cells/ml, Gram -; read-out: MIC
F. varium KYA 8501 = settings: Fusobacterium varium, KYA8501; F. varium KYA 8501, 10^6 cells/ml, Gram -; read-out: MIC
[17] = system: Clostridium difficile I-E; settings: Clostridioides difficile, 10^6 cells/ml, Gram +

## CCNCC1CCN(c2c(F)cc3c(=O)c(C(=O)O)cn(CC)c3c2F)C1 (stereo not shown) [CI-934, 1-Ethyl-7-(3-ethylaminomethyl-1-pyrrolidinyl)-6,8-difluoro-1,4-dihydro-4-oxo-3-quinolinecarboxylic acid]
[1]
  MIC: 0.05 µg/mL
[2]
  MIC: 0.1 µg/mL
[3]
  MIC: 0.1 µg/mL
S. epidermidis IID 866
  MIC: 0.1 µg/mL
[4]
  MIC: 0.2 µg/mL (≈ 0.527 µM)
S. pyogenes IID 692
  MIC: 0.39 µg/mL
S. pneumoniae IID 552
  MIC: 0.39 µg/mL (≈ 1.03 µM)
E. faecalis IID 682
  MIC: 0.39 µg/mL
[5]
  MIC: 0.1 µg/mL (≈ 0.264 µM)
E. coli ATCC 10536
  MIC: 0.1 µg/mL (≈ 0.264 µM)
[6]
  MIC: 0.05 µg/mL (≈ 0.132 µM)
P. mirabilis IID 994
  MIC: 0.2 µg/mL (≈ 0.527 µM)
P. morganii IID 602
  MIC: 0.39 µg/mL (≈ 1.03 µM)
[7]
  MIC: 0.2 µg/mL (≈ 0.527 µM)
K. pneumoniae 1-220S
  MIC: 0.39 µg/mL (≈ 1.03 µM)
[8]
  MIC: 0.78 µg/mL (≈ 2.06 µM)
[9]
  MIC: 0.2 µg/mL (≈ 0.527 µM)
[10]
  MIC: 0.39 µg/mL (≈ 1.03 µM)
Shigella sonnei IID 969
  MIC: 0.1 µg/mL (≈ 0.264 µM)
[11]
  MIC: 0.39 µg/mL (≈ 1.03 µM)
P. aeruginosa IFO 12689
  MIC: 6.25 µg/mL (≈ 16.5 µM)
[12]
  MIC: 0.39 µg/mL (≈ 1.03 µM)
[13]
  MIC: 0.39 µg/mL (≈ 1.03 µM)
[14]
  MIC: 6.25 µg/mL (≈ 16.5 µM)
[15]
  MIC: 6.25 µg/mL (≈ 16.5 µM)
B. fragilis 0558
  MIC: 3.13 µg/mL (≈ 8.25 µM)
B. fragilis 25285
  MIC: 3.13 µg/mL (≈ 8.25 µM)
B. fragilis 8503
  MIC: 6.25 µg/mL (≈ 16.5 µM)
[16]
  MIC: 25 µg/mL (≈ 65.9 µM)
F. varium KYA 8501
  MIC: 6.25 µg/mL (≈ 16.5 µM)
[17]
  MIC: 3.13 µg/mL

From EP0195316A1, “Quinolonecarboxylic acid derivatives” (KYORIN PHARMACEUTICAL CO., LTD., priority 1985, dated 1986)
